Columns and labels:
chickweed = assay: Test D preemergence; type: in vivo, Stellaria media; settings: Stellaria media, pre-emergence
Method in brief: (§1)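 After treatment, visual injury versus untreated plants, 0–100 scale, assessed at 7 to 21 days. Applications were made preemergence to silt loam-sown seed and postemergence to seedlings 2–18 cm high in potting medium.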

field violet = assay: Test D preemergence; type: in vivo, Viola arvensis; settings: Viola arvensis, pre-emergence
Method in brief: as §1

deadnettle = assay: Test D preemergence; type: in vivo, Lamium amplexicaule; settings: Lamium amplexicaule, pre-emergence
Method in brief: as §1

blackgrass = assay: Test D postemergence; type: in vivo, Alopecurus myosuroides; settings: Alopecurus myosuroides, post-emergence, Postemergence, scale 0 to 100 (0 no effect, 100 complete control), read-out: Plant response rating, Blackgrass
Method in brief: as §1

galium = assay: Test D postemergence; type: in vivo, Galium aparine; settings: Galium, post-emergence
Method in brief: as §1

Italian ryegrass [1] = assay: Test D postemergence; type: in vivo, Lolium multiflorum; settings: Lolium multiflorum, post-emergence
Method in brief: as §1

kochia = assay: Test D postemergence; type: in vivo, Kochia scoparia; settings: Bassia scoparia, post-emergence
Method in brief: as §1

speedwell = assay: Test D postemergence; type: in vivo, Veronica persica; settings: Veronica persica, post-emergence
Method in brief: as §1

wild buckwheat = assay: Test D postemergence; type: in vivo, Polygonum convolvulus; settings: Fallopia convolvulus, post-emergence, Postemergence, scale 0 to 100 (0 no effect, 100 complete control), read-out: Plant response rating, Buckwheat, Wild
Method in brief: as §1

soybean = assay: Test E postemergence; type: in vivo, Glycine max; settings: Glycine max, post-emergence
Method in brief: (§2)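 Compound in a non-phytotoxic solvent mixture with surfactant was applied preemergence to seeds in silt loam soil, or postemergence to plants 2 to 18 cm tall grown in peat-based potting medium. Plants were kept in a greenhouse for 14 to 21 days, then rated visually against untreated controls on a 0 (no effect) to 100 (complete control) scale.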

wild poinsettia = assay: Test E postemergence; type: in vivo, Euphorbia heterophylla; settings: Euphorbia heterophylla, post-emergence, read-out: Plant response rating, Poinsettia, Wild
Method in brief: as §2

[2] = system: waterhemp_RES2 (ALS & HPPD resistant common waterhemp); assay: Test E postemergence; type: in vivo, Amaranthus rudis; settings: Amaranthus tuberculatus, post-emergence, read-out: Plant response rating, Waterhemp_RES2
Method in brief: as §2

Italian ryegrass [3] = assay: Test E postemergence; type: in vivo, Lolium multiflorum; settings: Lolium multiflorum, post-emergence, read-out: Plant response rating, Ryegrass, Italian
Method in brief: as §2

[4] = Postemergence, 31 g ai/ha, scale 0 to 100
[5] = Postemergence, 62 g ai/ha, scale 0 to 100
[6] = Postemergence, 125 g ai/ha, scale 0 to 100
[7] = postemergence, 8 g ai/ha, scale 0 to 100, 0 no effect, 100 complete control
[8] = postemergence, 16 g ai/ha, scale 0 to 100, 0 no effect, 100 complete control

Clc1cnc(Oc2ccccc2-n2cc(Br)cn2)nc1 [Compound 7, 2-[2-(4-bromo-1H-pyrazol-1-yl)phenoxy]-5-chloropyrimidine]
pest or weed control at 16 g/ha (chickweed; 16 g ai/ha, scale 0 (no effect) to 100 (complete control), read-out: Plant response rating, Chickweed): 0%
pest or weed control at 31 g/ha (chickweed; 31 g ai/ha, scale 0-100, read-out: Plant response rating, Chickweed): 0%
pest or weed control at 62 g/ha (chickweed; 62 g ai/ha, scale 0-100, read-out: Plant response rating, Chickweed): 10%
pest or weed control at 125 g/ha (chickweed; 125 g ai/ha, scale 0-100, read-out: Plant response rating, Chickweed): 90%
pest or weed control at 250 g/ha (chickweed; 250 g ai/ha, scale 0-100, read-out: Plant response rating, Chickweed): 95%
pest or weed control at 16 g/ha (field violet; 16 g ai/ha, scale 0 (no effect) to 100 (complete control), read-out: Plant response rating, Field Violet): 0%
pest or weed control at 31 g/ha (field violet; 31 g ai/ha, scale 0-100, read-out: Plant response rating, Field Violet): 0%
pest or weed control at 62 g/ha (field violet; 62 g ai/ha, scale 0-100, read-out: Plant response rating, Field Violet): 20%
pest or weed control at 125 g/ha (field violet; 125 g ai/ha, scale 0-100, read-out: Plant response rating, Field Violet): 70%
pest or weed control at 250 g/ha (field violet; 250 g ai/ha, scale 0-100, read-out: Plant response rating, Field Violet): 80%
pest or weed control at 16 g/ha (deadnettle; 16 g ai/ha, scale 0 (no effect) to 100 (complete control), read-out: Plant response rating, Deadnettle): 0%
pest or weed control at 31 g/ha (deadnettle; 31 g ai/ha, scale 0-100, read-out: Plant response rating, Deadnettle): 0%
pest or weed control at 62 g/ha (deadnettle; 62 g ai/ha, scale 0-100, read-out: Plant response rating, Deadnettle): 10%
pest or weed control at 125 g/ha (deadnettle; 125 g ai/ha, scale 0-100, read-out: Plant response rating, Deadnettle): 20%
pest or weed control at 250 g/ha (deadnettle; 250 g ai/ha, scale 0-100, read-out: Plant response rating, Deadnettle): 80%
pest or weed control at 62 g/ha (blackgrass; 62 g ai/ha): 5%
pest or weed control at 16 g/ha (blackgrass; 16 g ai/ha): 0%
pest or weed control at 31 g/ha (blackgrass; 31 g ai/ha): 5%
pest or weed control at 125 g/ha (blackgrass; 125 g ai/ha): 10%
pest or weed control at 250 g/ha (blackgrass; 250 g ai/ha): 25%
pest or weed control at 16 g/ha (galium; 16 g ai/ha, scale 0-100, read-out: Plant response rating, Galium): 20%
pest or weed control at 31 g/ha (galium; 31 g ai/ha, scale 0 to 100 (0 no effect, 100 complete control), read-out: Plant response rating, Galium): 40%
pest or weed control at 62 g/ha (galium; 62 g ai/ha, scale 0 to 100 (0 no effect, 100 complete control), read-out: Plant response rating, Galium): 70%
pest or weed control at 125 g/ha (galium; 125 g ai/ha, scale 0 to 100 (0 no effect, 100 complete control), read-out: Plant response rating, Galium): 80%
pest or weed control at 250 g/ha (galium; 250 g ai/ha, scale 0 to 100 (0 no effect, 100 complete control), read-out: Plant response rating, Galium): 90%
pest or weed control at 16 g/ha (Italian ryegrass [1]; 16 g ai/ha, scale 0-100, read-out: Plant response rating, Ryegrass, Italian): 0%
pest or weed control at 31 g/ha (Italian ryegrass [1]; 31 g ai/ha, scale 0 to 100 (0 no effect, 100 complete control), read-out: Plant response rating, Ryegrass, Italian): 0%
pest or weed control at 62 g/ha (Italian ryegrass [1]; 62 g ai/ha, scale 0 to 100 (0 no effect, 100 complete control), read-out: Plant response rating, Ryegrass, Italian): 0%
pest or weed control at 125 g/ha (Italian ryegrass [1]; 125 g ai/ha, scale 0 to 100 (0 no effect, 100 complete control), read-out: Plant response rating, Ryegrass, Italian): 0%
pest or weed control at 250 g/ha (Italian ryegrass [1]; 250 g ai/ha, scale 0 to 100 (0 no effect, 100 complete control), read-out: Plant response rating, Ryegrass, Italian): 0%
pest or weed control at 16 g/ha (kochia; 16 g ai/ha, scale 0-100, read-out: Plant response rating, Kochia): 30%
pest or weed control at 31 g/ha (kochia; 31 g ai/ha, scale 0 to 100 (0 no effect, 100 complete control), read-out: Plant response rating, Kochia): 70%
pest or weed control at 62 g/ha (kochia; 62 g ai/ha, scale 0 to 100 (0 no effect, 100 complete control), read-out: Plant response rating, Kochia): 100%
pest or weed control at 125 g/ha (kochia; 125 g ai/ha, scale 0 to 100 (0 no effect, 100 complete control), read-out: Plant response rating, Kochia): 100%
pest or weed control at 250 g/ha (kochia; 250 g ai/ha, scale 0 to 100 (0 no effect, 100 complete control), read-out: Plant response rating, Kochia): 100%
pest or weed control at 16 g/ha (speedwell; 16 g ai/ha, scale 0-100, read-out: Plant response rating, Speedwell): 30%
pest or weed control at 31 g/ha (speedwell; 31 g ai/ha, scale 0 to 100 (0 no effect, 100 complete control), read-out: Plant response rating, Speedwell): 70%
pest or weed control at 62 g/ha (speedwell; 62 g ai/ha, scale 0 to 100 (0 no effect, 100 complete control), read-out: Plant response rating, Speedwell): 100%
pest or weed control at 125 g/ha (speedwell; 125 g ai/ha, scale 0 to 100 (0 no effect, 100 complete control), read-out: Plant response rating, Speedwell): 100%
pest or weed control at 250 g/ha (speedwell; 250 g ai/ha, scale 0 to 100 (0 no effect, 100 complete control), read-out: Plant response rating, Speedwell): 100%
pest or weed control at 16 g/ha (wild buckwheat; 16 g ai/ha): 20%
pest or weed control at 31 g/ha (wild buckwheat; 31 g ai/ha): 30%
pest or weed control at 62 g/ha (wild buckwheat; 62 g ai/ha): 60%
pest or weed control at 125 g/ha (wild buckwheat; 125 g ai/ha): 85%
pest or weed control at 250 g/ha (wild buckwheat; 250 g ai/ha): 100%
plant response (crop injury) rating, soybean, 0-100 scale at 31 g/ha (soybean; [4]): 90%
plant response (crop injury) rating, soybean, 0-100 scale at 62 g/ha (soybean; [5]): 98%
plant response (crop injury) rating, soybean, 0-100 scale at 125 g/ha (soybean; [6]): 98%
plant response (crop injury) rating, soybean, 0-100 scale at 8 g/ha (soybean; [7]): 60%
plant response (crop injury) rating, soybean, 0-100 scale at 16 g/ha (soybean; [8]): 80%
pest or weed control at 31 g/ha (wild poinsettia; [4]): 30%
pest or weed control at 62 g/ha (wild poinsettia; [5]): 60%
pest or weed control at 125 g/ha (wild poinsettia; [6]): 60%
pest or weed control at 8 g/ha (wild poinsettia; [7]): 0%
pest or weed control at 16 g/ha (wild poinsettia; [8]): 30%
pest or weed control at 31 g/ha [2, 4]: 80%
pest or weed control at 62 g/ha [2, 5]: 90%
pest or weed control at 125 g/ha [2, 6]: 95%
pest or weed control at 16 g/ha [2, 8]: 75%
pest or weed control at 31 g/ha (Italian ryegrass [3]; [4]): 0%
pest or weed control at 62 g/ha (Italian ryegrass [3]; [5]): 0%
pest or weed control at 125 g/ha (Italian ryegrass [3]; [6]): 0%
pest or weed control at 8 g/ha (Italian ryegrass [3]; [7]): 0%
pest or weed control at 16 g/ha (Italian ryegrass [3]; [8]): 0%

Reference: patent publication US9695155B2, “Herbicidal substituted pyrimidinyloxy benzene compounds” (E. I. DU PONT DE NEMOURS AND COMPANY, priority 2013, dated 2017)
